Among the data in patent US9975907B2, “Pyrimidinones as PI3K inhibitors” (Incyte Corporation, priority 2009, dated 2018) are IC50 values, retold here.

The structures appear in SMILES notation. Where a name gives a salt, the structure may show the parent alone.

Test [1] deals with Pfeiffer cell line (diffuse large B cell lymphoma). Put plainly: Pfeiffer Cell Proliferation Assay. Type of test: cell-based. The note with it: 3-4 days, [3H]-thymidine incorporation. As to the method: Pfeiffer cell line (diffuse large B cell lymphoma) was purchased from ATCC (Manassas, Va.) and maintained in the culture medium recommended (RPMI and 10% FBS). To measure the anti-proliferation activity of the PI3Kδ submittals, the Pfeiffer cells were plated with the culture medium (2×10^3 cells/well/per 200 μl) into 96-well ultra-low binding plates (Corning, Corning, N.Y.), in the presence or absence of a concentration range of test compounds. After 3-4 days, [^3H]-thymidine (1 μCi/well) (PerkinElmer, Boston, Mass.) in PBS was then added to the cell culture for an additional 12 hrs before the incorporated radioactivity was separated by filtration with water through GF/B filters (Packard Bioscience, Meriden, Conn.) and measured by liquid scintillation counting with a TopCount (Packard Bioscience). See Table 3 for data related to compounds of the invention.
(Dividing cells build labelled thymidine or BrdU into new DNA.)

Test [2] has as its target T1, PI3Kδ (p110δ/p85α) (Homo sapiens (Human), UniProt O00329). Put plainly: PI3Kδ Scintillation Proximity Assay (Assay A3). The test is classed as biochemical. The settings on record: column b, Assay A3 (SPA), 20 μM ATP. The text has this: [γ-^33P]ATP (10 mCi/mL) was purchased from Perkin-Elmer (Waltham, Mass.). Lipid kinase substrate, D-myo-Phosphatidylinositol 4,5-bisphosphate (PtdIns(4,5)P2)D (+)-sn-1,2-di-O-octanoylglyceryl, 3-O-phospho linked (PIP2), CAS 204858-53-7, was purchased from Echelon Biosciences (Salt Lake City, Utah). PI3Kδ (p110δ/p85α) was purchased from Millipore (Bedford, Mass.). ATP, MgCl2, DTT, EDTA, MOPS and CHAPS were purchased from Sigma-Aldrich (St. Louis, Mo.). Wheat Germ Agglutinin (WGA) YSi SPA Scintillation Beads was purchased from GE healthcare life sciences (Piscataway, N.J.).
The kinase reaction was conducted in polystyrene 384-well matrix white plate from Thermo Fisher Scientific in a final volume of 25 μL. Inhibitors were first diluted serially in DMSO and added to the plate wells before the addition of other reaction components. The final concentration of DMSO in the assay was 0.5%. The PI3K assays were carried out at room temperature in 20 mM MOPS, pH 6.7, 10 mM MgCl2, 5 mM DTT and CHAPS 0.03%. Reactions were initiated by the addition of ATP, the final reaction mixture consisted of 20 μM PIP2, 20 μM ATP, 0.2 μCi [γ-^33P] ATP, 4 nM PI3Kδ. Reactions were incubated for 210 min and terminated by the addition of 40 μL SPA beads suspended in quench buffer: 150 mM potassium phosphate pH 8.0, 20% glycerol. 25 mM EDTA, 400 μM ATP. The final concentration of SPA beads was 1.0 mg/mL. After the plate sealing, plates were shaken overnight at room temperature and centrifuged at 1800 rpm for 10 minutes, the radioactivity of the product was determined by scintillation counting on Topcount (Perkin-Elmer). IC50 determination was performed by fitting the curve of percent control activity versus the log of the inhibitor concentration using the GraphPad Prism 3.0 software.
Background: SPA uses beads or plates that emit light when radiolabelled molecules are held near them.

Test [3] deals with T1, PI3Kδ (p110δ/p85α). Kind of test: AlphaScreen Assay for PI3Kδ (Assay A1). The test is classed as biochemical. The note with it: column a, 20 μM ATP. The source says:
PI3-Kinase luminescent assay kit including lipid kinase substrate, D-myo-phosphatidylinositol 4,5-bisphosphate (PtdIns(4,5)P2)D (+)-sn-1,2-di-O-octanoylglyceryl, 3-O-phospho linked (PIP2), biotinylated I(1,3,4,5)P4, PI(3,4,5)P3 Detector Protein, was purchased from Echelon Biosciences (Salt Lake City, Utah). AlphaScreen™ GST Detection Kit including donor and acceptor beads was purchased from PerkinElmer Life Sciences (Waltham, Mass.). PI3Kδ (p110δ/p85α) was purchased from Millipore (Bedford, Mass.). ATP, MgCb, DTT, EDTA, HEPES and CHAPS were purchased from Sigma-Aldrich (St. Louis, Mo.).
AlphaScreen™ Assay for PI3Kδ
The kinase reaction was conducted in 384-well REMP plate from Thermo Fisher Scientific in a final volume of 40 μL. Inhibitors were first diluted serially in DMSO and added to the plate wells before the addition of other reaction components. The final concentration of DMSO in the assay was 2%. The PI3K assays were carried out at room temperature in 50 mM HEPES, pH 7.4, 5 mM MgCl2, 50 mM NaCl, 5 mM DTT and CHAPS 0.04%. Reactions were initiated by the addition of ATP, the final reaction mixture consisted of 20 μM PIP2, 20 μM ATP, 1.2 nM PI3Kδ were incubated for 20 min. 10 μL of reaction mixture was then transferred to 5 μL 50 nM biotinylated I(1,3,4,5)P4 in quench buffer: 50 mM HEPES pH 7.4, 150 mM NaCl, 10 mM EDTA, 5 mM DTT, 0.1% Tween-20, followed with the addition of 10 μL AlphaScreen™ donor and acceptor beads suspended in quench buffer containing 25 nM PI(3,4,5)P3 detector protein. The final concentration of both donor and acceptor beads is […]. After plate sealing, the plate was incubated in a dark location at room temperature for 2 hours. The activity of the product was determined on Fusion-alpha microplate reader (Perkin-Elmer). IC50 determination was performed by fitting the curve of percent control activity versus the log of the inhibitor concentration using the GraphPad Prism 3.0 software.
A general note: Bead proximity is the source of the signal in Alpha formats.

T1 sequence (O00329 whole entry, species assumed): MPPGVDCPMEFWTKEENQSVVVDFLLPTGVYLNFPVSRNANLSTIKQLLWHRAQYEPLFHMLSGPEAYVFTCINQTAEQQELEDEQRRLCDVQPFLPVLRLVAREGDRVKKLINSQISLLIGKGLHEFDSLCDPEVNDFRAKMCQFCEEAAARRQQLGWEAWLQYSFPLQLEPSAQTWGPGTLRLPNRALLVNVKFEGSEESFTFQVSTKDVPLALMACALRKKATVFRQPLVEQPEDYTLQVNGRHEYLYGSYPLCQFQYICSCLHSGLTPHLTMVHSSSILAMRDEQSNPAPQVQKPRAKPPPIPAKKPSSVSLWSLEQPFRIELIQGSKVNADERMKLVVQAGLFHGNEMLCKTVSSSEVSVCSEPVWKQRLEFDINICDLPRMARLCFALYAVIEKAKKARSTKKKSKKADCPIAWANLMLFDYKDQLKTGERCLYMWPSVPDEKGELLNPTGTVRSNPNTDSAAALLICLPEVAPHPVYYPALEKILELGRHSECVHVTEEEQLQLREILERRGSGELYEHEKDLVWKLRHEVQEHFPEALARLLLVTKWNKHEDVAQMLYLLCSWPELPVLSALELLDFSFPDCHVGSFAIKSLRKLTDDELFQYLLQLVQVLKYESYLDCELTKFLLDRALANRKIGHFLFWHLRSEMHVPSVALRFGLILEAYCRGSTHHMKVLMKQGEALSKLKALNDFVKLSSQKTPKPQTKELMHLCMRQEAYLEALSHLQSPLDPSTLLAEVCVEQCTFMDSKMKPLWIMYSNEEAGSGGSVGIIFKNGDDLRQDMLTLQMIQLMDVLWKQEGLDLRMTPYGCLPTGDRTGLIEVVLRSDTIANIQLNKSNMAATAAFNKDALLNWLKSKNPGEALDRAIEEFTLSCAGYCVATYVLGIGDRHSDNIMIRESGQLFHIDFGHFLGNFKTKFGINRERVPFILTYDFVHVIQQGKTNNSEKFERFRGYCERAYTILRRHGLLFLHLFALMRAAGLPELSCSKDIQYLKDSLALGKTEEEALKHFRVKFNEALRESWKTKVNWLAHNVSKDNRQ
T1 sequence (P27986 whole entry partner, species assumed): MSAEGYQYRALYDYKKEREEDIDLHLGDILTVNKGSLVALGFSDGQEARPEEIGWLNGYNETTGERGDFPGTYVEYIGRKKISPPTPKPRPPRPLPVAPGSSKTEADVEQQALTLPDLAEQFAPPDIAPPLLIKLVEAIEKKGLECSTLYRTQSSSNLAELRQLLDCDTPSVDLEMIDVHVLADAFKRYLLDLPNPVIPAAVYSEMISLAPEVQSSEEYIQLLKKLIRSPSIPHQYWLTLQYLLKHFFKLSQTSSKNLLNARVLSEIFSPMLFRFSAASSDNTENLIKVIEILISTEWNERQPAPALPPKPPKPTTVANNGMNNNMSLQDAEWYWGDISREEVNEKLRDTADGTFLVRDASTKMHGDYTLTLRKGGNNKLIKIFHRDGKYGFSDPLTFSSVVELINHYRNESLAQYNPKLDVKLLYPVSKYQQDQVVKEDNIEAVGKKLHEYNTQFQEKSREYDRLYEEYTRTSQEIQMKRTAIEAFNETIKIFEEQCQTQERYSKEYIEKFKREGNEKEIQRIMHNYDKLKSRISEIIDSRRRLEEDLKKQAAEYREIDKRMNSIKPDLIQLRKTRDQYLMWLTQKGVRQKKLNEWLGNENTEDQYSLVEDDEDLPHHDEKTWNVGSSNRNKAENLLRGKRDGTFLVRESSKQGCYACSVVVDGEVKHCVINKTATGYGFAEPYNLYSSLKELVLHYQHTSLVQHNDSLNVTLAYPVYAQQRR

For `Cc1csc2nc([C@H](C)Nc3nc(N)nc4[nH]cnc34)c(-c3ccccc3Cl)c(=O)n12` (single isomer, unassigned) [39 Second peak], the IC50 in test [1] is < 50 nM.

Take `Cc1csc2nc([C@H](C)Nc3ncnc4[nH]cnc34)c(-c3ccccc3Cl)c(=O)n12` (single isomer, unassigned) [43 Second peak]: the IC50 in test [1] was < 50 nM.

In the case of `Cc1cccc2nc(C(C)Nc3ncnc4[nH]cnc34)c(-c3cccc(F)c3)c(=O)n12` (single isomer, unassigned) [Example 72, 3-(3-Fluorophenyl)-6-methyl-2-[1-(9H-purin-6-ylamino)ethyl]-4H-pyrido[1,2-a]pyrimidin-4-one trifluoroacetic acid salt], the IC50 against PI3Kδ (p110δ/p85α) [2] was > 500 nM; in test [1] (trifluoroacetic acid salt) it was 500 to 1000 nM.

As to `Cc1cccc2nc(C(C)Nc3nc(N)nc4[nH]cnc34)c(-c3cccc(F)c3)c(=O)n12` (single isomer, unassigned) [Example 74, 2-{1-[(2-Amino-9H-purin-6-yl)amino]ethyl}-3-(3-fluorophenyl)-6-methyl-4H-pyrido[1,2-a]pyrimidin-4-one trifluoroacetic acid salt], the IC50 (at PI3Kδ (p110δ/p85α) [2]; in test [1] (trifluoroacetic acid salt)) was < 50 nM each time.

Turning to `Cc1cccc2nc(C(C)Nc3nc(N)nc4[nH]cnc34)c(-c3cccc(F)c3)c(=O)n12` (single isomer, unassigned) [Example 75, 2-{1-[(2-Amino-9H-purin-6-yl)amino]ethyl}-3-(3-fluorophenyl)-6-methyl-4H-pyrido[1,2-a]pyrimidin-4-one trifluoroacetic acid salt], the IC50 against PI3Kδ (p110δ/p85α) [2] is > 500 nM; in test [1] (trifluoroacetic acid salt), 500 to 1000 nM.

For the molecule `Cc1cccc2nc(C(C)n3cnc4c(N)ncnc43)c(-c3ccccc3)c(=O)n12` (centres unmarked) [Example 1, 2-[1-(6-amino-9H-purin-9-yl)ethyl]-6-methyl-3-phenyl-4H-pyrido[1,2-a]pyrimidin-4-one], the IC50 on PI3Kδ (p110δ/p85α) [2] and against PI3Kδ (p110δ/p85α) [3] was 100 to 500 nM in each case.

As to `CCC(Nc1ncnc2[nH]cnc12)c1nc2cccc(C)n2c(=O)c1-c1ccccc1` (centres unmarked) [Example 2, 6-methyl-3-phenyl-2-[1-(9H-purin-6-ylamino)propyl]-4H-pyrido[1,2-a]pyrimidin-4-one], the results for the IC50 at PI3Kδ (p110δ/p85α) [2] and against PI3Kδ (p110δ/p85α) [3] were < 50 nM and 50 to 100 nM, respectively.

As for `CCC(Nc1ncnc2[nH]cnc12)c1nc2cccc(C)n2c(=O)c1-c1cncc(F)c1` (centres unmarked) [Example 3, 3-(5-fluoropyridin-3-yl)-6-methyl-2-[1-(9H-purin-6-ylamino)propyl]-4H-pyrido[1,2-a]pyrimidin-4-one], the IC50 against PI3Kδ (p110δ/p85α) [2] and against PI3Kδ (p110δ/p85α) [3] was 100 to 500 nM each time.

For `CCC(Nc1ncnc2[nH]cnc12)c1nc2cccc(C)n2c(=O)c1-c1cccc(F)c1` (centres unmarked) [Example 4, 3-(3-fluorophenyl)-6-methyl-2-[1-(9H-purin-6-ylamino)propyl]-4H-pyrido[1,2-a]pyrimidin-4-one], the IC50 on PI3Kδ (p110δ/p85α) [2] was in the range of 50 to 100 nM; on PI3Kδ (p110δ/p85α) [3], 100 to 500 nM.

Regarding `CCC(Nc1ncnc2[nH]cnc12)c1nc2cccc(C)n2c(=O)c1-c1cc(F)cc(F)c1` (centres unmarked) [Example 5, 3-(3,5-difluorophenyl)-6-methyl-2-[1-(9H-purin-6-ylamino)propyl]-4H-pyrido[1,2-a]pyrimidin-4-one], the figures for the IC50 against PI3Kδ (p110δ/p85α) [2] and on PI3Kδ (p110δ/p85α) [3] were 50 to 100 nM and 100 to 500 nM, respectively.

On to `CCC(Nc1ncnc2[nH]cnc12)c1nc2cccc(C)n2c(=O)c1-c1cccnc1F` (centres unmarked) [Example 6, 3-(2-fluoropyridin-3-yl)-6-methyl-2-[1-(9H-purin-6-ylamino)propyl]-4H-pyrido[1,2-a]pyrimidin-4-one], for which the IC50 at PI3Kδ (p110δ/p85α) [2] and against PI3Kδ (p110δ/p85α) [3] was 100 to 500 nM in each case.

For the molecule `CCC(Nc1ncnc2[nH]cnc12)c1nc2cccc(C)n2c(=O)c1-c1cn[nH]c1` (centres unmarked) [Example 7, 6-methyl-2-[1-(9H-purin-6-ylamino)propyl]-3-(1H-pyrazol-4-yl)-4H-pyrido[1,2-a]pyrimidin-4-one], the values for the IC50 on PI3Kδ (p110δ/p85α) [2] and on PI3Kδ (p110δ/p85α) [3] were 50 to 100 nM and 100 to 500 nM, respectively.

`Cc1csc2nc(C(C)Nc3ncnc4[nH]cnc34)c(-c3ccccc3)c(=O)n12` (centres unmarked) [Example 8, 3-methyl-6-phenyl-7-[1-(9H-purin-6-ylamino)ethyl]-5H-[1,3]thiazolo[3,2-a]pyrimidin-5-one]: the IC50 at PI3Kδ (p110δ/p85α) [2] is < 50 nM; against PI3Kδ (p110δ/p85α) [3], 50 to 100 nM.

Regarding `Cc1csc2nc(C(C)Nc3ncnc4[nH]cnc34)c(-c3ccccn3)c(=O)n12` (centres unmarked) [Example 14, 3-methyl-7-[1-(9H-purin-6-ylamino)ethyl]-6-pyridin-2-yl-5H-[1,3]thiazolo[3,2-a]pyrimidin-5-one], the concentration for half-maximal inhibition (IC50) against PI3Kδ (p110δ/p85α) [2] and against PI3Kδ (p110δ/p85α) [3] was 50 to 100 nM throughout.

Take `Cc1cccc2nc(C(C)Nc3ncnc4[nH]cnc34)c(-c3cccc(F)c3)c(=O)n12` (centres unmarked) [Example 70, 3-(3-Fluorophenyl)-6-methyl-2-[1-(9H-purin-6-ylamino)ethyl]-4H-pyrido[1,2-a]pyrimidin-4-one trifluoroacetic acid salt]: the IC50 against PI3Kδ (p110δ/p85α) [2] is 50 to 100 nM; in test [1] (Homo sapiens, Pfeiffer) it was < 50 nM.

Regarding `Cc1cccc2nc(C(C)Nc3nc(N)nc4[nH]cnc34)c(-c3cccc(F)c3)c(=O)n12` (centres unmarked) [Example 73, 2-{1-[(2-Amino-9H-purin-6-yl)amino]ethyl}-3-(3-fluorophenyl)-6-methyl-4H-pyrido[1,2-a]pyrimidin-4-one trifluoroacetic acid salt], the IC50 against PI3Kδ (p110δ/p85α) [2] was < 50 nM; in test [1] (Homo sapiens, Pfeiffer), < 50 nM.

On PI3Kδ (p110δ/p85α) [2], `Cc1cccc2nc(C(C)Nc3ncnc4[nH]cnc34)c(-c3cccc(C#N)c3)c(=O)n12` (centres unmarked) [Example 83, 3-{6-Methyl-4-oxo-2-[1-(9H-purin-6-ylamino)ethyl]-4H-pyrido[1,2-a]pyrimidin-3-yl}benzonitrile trifluoroacetic acid salt] registered an IC50 of 100 to 500 nM.

Consider `Cc1cccc2nc(C(C)Nc3nc(N)nc4[nH]cnc34)c(-c3cccc(C#N)c3)c(=O)n12` (centres unmarked) [Example 84, 3-(2-{1-[(2-Amino-9H-purin-6-yl)amino]ethyl}-6-methyl-4-oxo-4H-pyrido[1,2-a]pyrimidin-3-yl)benzonitrile trifluoroacetic acid salt], for which, at PI3Kδ (p110δ/p85α) [2], the IC50 is 50 to 100 nM.

A word on the IC50: it is the concentration at which inhibition is half-maximal.
